These results are taken from patent US4349545A, “Novel erythromycin a derivatives” (Roussel Uclaf, priority 1980, dated 1982).

In assay [1] the test system is Staphylococcus aureus ATCC 6538. The assay is described as follows: serial dilution liquid medium MIC, Staphylococcus aureus ATCC 6538 Pen-Sensibles. The settings on record: read-out: minimum inhibiting concentration (MIC). It counts as cell-based. How it is done:
(§1) The method was a serial dilution of liquid medium test wherein a series of tubes were prepared containing the same amount of sterile nutritive medium and increasing amounts of the test product was distributed in each tube. The tubes were then seeded with a bacterial strain and incubated for 24 hours in an oven at 37° C. The degree of inhibition was determined by transillumination to determine the minimum inhibiting concentration (MIC) express in μg/ml and the results are reported in the following Tables.

In assay [2] the test system is Staphylococcus aureus UC 1128. The assay is described as follows: serial dilution liquid medium MIC, Staphylococcus aureus UC 1128 pen-resistant. It counts as cell-based. The settings on record: read-out: minimum inhibiting concentration (MIC). The gist of the method:
(§2)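 Broth tube dilution: graded compound amounts in fixed nutrient medium, bacterial inoculum, 24 h at 37° C. MIC (μg/ml) read by transillumination.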

Assay [3] relates to Staphylococcus aureus exp. n° 54 146. The assay is described as follows: serial dilution liquid medium MIC, Staphylococcus aureus exp. n° 54 146. In kind it is cell-based. The following applies: Staphylococcus aureus exp. 54 146; 24 hours at 37° C.; read-out: minimum inhibiting concentration (MIC). The essentials: as §2
Assay [4] has as its system Streptococcus pyogenes A 561. As to the kind of experiment: serial dilution liquid medium MIC, Streptococcus pyogenes A 561. In kind it is cell-based. The following applies: A561, 24 hours at 37° C., read-out: minimum inhibiting concentration (MIC). The essentials:
as §2

For assay [5], the system named is Streptococcus faecalis 5432. As to the kind of experiment: serial dilution liquid medium MIC, Streptococcus faecalis 5432. In kind it is cell-based. The settings on record: Enterococcus faecalis, 24 hours at 37° C., read-out: minimum inhibiting concentration (MIC). The essentials: as §2
The subject of assay [6] is Streptococcus faecalis 99 F 74. As to the kind of experiment: serial dilution liquid medium MIC, Streptococcus faecalis 99 F 74. It counts as cell-based. The settings on record: Enterococcus faecalis, 99F74, 24 hours at 37° C., read-out: minimum inhibiting concentration (MIC). The essentials:
as §2

The subject of assay [7] is Bacillus subtilis ATCC 6 633. The assay is described as follows: serial dilution liquid medium MIC, Bacillus subtilis ATCC 6 633. In kind it is cell-based. The settings on record: ATCC6, 24 hours at 37° C., read-out: minimum inhibiting concentration (MIC). On the procedure:
as §1

The subject of assay [8] is Staphylococcus aureus No. 54,146. As to the kind of experiment: In vivo activity in mice experimentally infected with Staphylococcus aureus No. 54,146. The settings on record: groups of 10 mice. How it is done:
The test was effected with the compounds of the invention and erythromycin as a reference on groups of 10 mice weighing about 21 g experimentally infected with Staphylococcus aureus No. 54,146 by intraperitoneal administration of 0.5 ml of a 22 hour culture of the said organism in bouillon with a pH of 7 diluted to 1/6 with physiological water. The test compounds were orally administrated to the mice 1,5 and 24 hours after the infection and the mortality on the 8th day was determined.

The subject of assay [9] is Streptococcus pyrogenes A561. As to the kind of experiment: In vivo activity in mice experimentally infected with Streptococcus pyrogenes A561. The settings on record: groups of 10 male mice. On the procedure:
In a second test, groups of 10 male mice weighing about 21 g were experimentally infected by an intraperitoneal injection of 0.5 ml of a 22 hour culture of Streptococcus pyrogenes A561 in Todd Hewitt bouillon with a pH of 7 diluted to 1/1000 with physiological water. The compounds of Examples 1 or 5 were administered orally 1,5 and 24 hours after the infection and the number of mice living on the fifth day was determined.

For assay [10], the system named is Staphylococcus aureus 1061. As to the kind of experiment: serial dilution liquid medium MIC, Staphylococcus aureus 1061 pen-sensibles. In kind it is cell-based. The settings on record: 24 hours at 37° C., read-out: minimum inhibiting concentration (MIC). The essentials:
as §2

Assay [11] deals with Streptococcus faecalis 5435. As to the kind of experiment: serial dilution liquid medium MIC, Streptococcus faecalis 5435. It counts as cell-based. The settings on record: Enterococcus faecalis, 24 hours at 37° C., read-out: minimum inhibiting concentration (MIC). The essentials: as §2
The mark [12] stands for this setting: ATCC6538, Staphylococcus aureus ATCC 6538 Pen-Sensibles, 24 hours at 37° C.
Setting [13] is: UC1128, Staphylococcus aureus UC 1128 pen-resistant, 24 hours at 37° C.
Where [14] appears, read: dose 0,5mg oral, 1,5 and 24 hours after infection.
Where [15] appears, read: dose 0,25mg oral, 1,5 and 24 hours after infection.
Where [16] appears, read: dose 0,75mg oral, 1,5 and 24 hours after infection.
[17] abbreviates: dose 1mg oral, 1,5 and 24 hours after infection.
The mark [18] stands for this setting: Staphylococcus aureus, ATCC6538, 24 h.

In brackets after ≈: the same amount, converted by molar mass. Like-named read-outs stand apart in the source and are kept apart here. A value given as a limit tells only on which side of the number the result lay.

For `CCOCCOCON=C1[C@H](C)C[C@@](C)(O)[C@H](O[C@@H]2O[C@H](C)C[C@H](N(C)C)[C@H]2O)[C@@H](C)[C@H](O[C@H]2C[C@@](C)(OC)[C@@H](O)[C@H](C)O2)[C@@H](C)C(=O)O[C@H](CC)[C@@](C)(O)[C@H](O)[C@H]1C` [Example 4, 9-[0-(2-ethoxyethoxymethyl)-oxime] of erythromycin], the MIC in assay [1] (setting [12]) was 2 mg/L (≈ 2.35 µM); in assay [2] (setting [13]) it was 3 mg/L (≈ 3.52 µM); in assay [3], 2 mg/L (≈ 2.35 µM); in [4] it was 0.05 mg/L (≈ 0.0587 µM); in assay [5], 0.5 mg/L (≈ 0.587 µM); in assay [6], 0.2 mg/L (≈ 0.235 µM). Moreover, in assay [7], the MIC came to 0.5 mg/L (≈ 0.587 µM). For the same compound, the “No. of mice living on the 8th day” value amounted to 4 mice in [8] (setting [14]), 0 mice in assay [8] (setting [15]), 9 mice in assay [8] (setting [16]) and 10 mice in [8] (setting [17]).

For the compound `CCOCCON=C1[C@H](C)C[C@@](C)(O)[C@H](O[C@@H]2O[C@H](C)C[C@H](N(C)C)[C@H]2O)[C@@H](C)[C@H](O[C@H]2C[C@@](C)(OC)[C@@H](O)[C@H](C)O2)[C@@H](C)C(=O)O[C@H](CC)[C@@](C)(O)[C@H](O)[C@H]1C` [Example 3, 9-[0-(2-ethoxyethyl)-oxime] of erythromycin], the MIC in [1] (setting [12]) came to 0.5 mg/L (≈ 0.609 µM); in [2] (setting [13]), 1 mg/L (≈ 1.22 µM); in [3], 0.5 mg/L (≈ 0.609 µM); in [4] it was 0.1 mg/L (≈ 0.122 µM); in [5], 0.2 mg/L (≈ 0.244 µM); in [6], 0.2 mg/L (≈ 0.244 µM). In assay [7], the MIC came to 0.2 mg/L (≈ 0.244 µM). The “No. of mice living on the 8th day” value in [8] (setting [14]) was found to be 7 mice; in [8] (setting [16]) it was 9 mice; in assay [8] (setting [17]), 9 mice.

For `CC[C@H]1OC(=O)[C@H](C)[C@@H](O[C@H]2C[C@@](C)(OC)[C@@H](O)[C@H](C)O2)[C@H](C)[C@@H](O[C@@H]2O[C@H](C)C[C@H](N(C)C)[C@H]2O)[C@](C)(O)C[C@@H](C)C(=NOCOCCOC)[C@H](C)[C@@H](O)[C@]1(C)O` [Example 1, 9-[0-(2-methoxyethoxy)-methyloxime] of erythromycin], the MIC in assay [1] (setting [18]) came to 0.5 mg/L (≈ 0.597 µM); in assay [2] (setting [13]) it was 2 mg/L (≈ 2.39 µM); in assay [3], 1 mg/L (≈ 1.19 µM); in assay [4] it was 0.05 mg/L (≈ 0.0597 µM); in [5] it was 0.2 mg/L (≈ 0.239 µM); in assay [6] it was 0.2 mg/L (≈ 0.239 µM). Also, in assay [7], the MIC turned out to be 0.2 mg/L (≈ 0.239 µM). The “No. of mice living on the 8th day” value in [8] (setting [14]) was 10 mice; in assay [8] (setting [15]), 7 mice. The “No. of mice alive on 5th day” value in assay [9] (dose 0.5 mg oral, 1,5 and 24 hours after infection) is reported as 2 mice; in assay [9] (dose 1 mg oral, 1,5 and 24 hours after infection) it was 10 mice.

With `CC[C@H]1OC(=O)[C@H](C)[C@@H](O[C@H]2C[C@@](C)(OC)[C@@H](O)[C@H](C)O2)[C@H](C)[C@@H](O[C@@H]2O[C@H](C)C[C@H](N(C)C)[C@H]2O)[C@](C)(O)C[C@@H](C)C(=NOCOCc2ccccc2)[C@H](C)[C@@H](O)[C@]1(C)O` [Example 7, 9-[0-benzyloxymethoxy-oxime] of erythromycin], the MIC came to 0.2 mg/L (≈ 0.23 µM) in assay [1] (setting [18]); 1 mg/L (≈ 1.15 µM) in assay [2] (setting [13]); 0.5 mg/L (≈ 0.575 µM) in assay [3]; 0.05 mg/L (≈ 0.0575 µM) in assay [4]; 0.1 mg/L (≈ 0.115 µM) in [5]; 0.1 mg/L (≈ 0.115 µM) in assay [6]. In [7], the MIC is 0.1 mg/L (≈ 0.115 µM).

For `CC[C@H]1OC(=O)[C@H](C)[C@@H](O[C@H]2C[C@@](C)(OC)[C@@H](O)[C@H](C)O2)[C@H](C)[C@@H](O[C@@H]2O[C@H](C)C[C@H](N(C)C)[C@H]2O)[C@](C)(O)C[C@@H](C)C(=NOCCN(C)C)[C@H](C)[C@@H](O)[C@]1(C)O` [Example 5, 9-[0-(2-dimethylaminoethyl)-oxime] of erythromycin], the MIC in assay [1] (setting [12]) is 1 mg/L (≈ 1.22 µM); in assay [2] (setting [13]) it was 1 mg/L (≈ 1.22 µM); in [3], 1 mg/L (≈ 1.22 µM); in assay [4] it was at most 0.02 mg/L; in assay [5], 0.05 mg/L (≈ 0.061 µM); in assay [6] it was 0.05 mg/L (≈ 0.061 µM). Also, the MIC in [7] came to 0.5 mg/L (≈ 0.61 µM). Moreover, the “No. of mice living on the 8th day” value is listed as 8 mice in [8] (setting [14]), 2 mice in [8] (setting [15]) and 10 mice in [8] (setting [16]). In addition, the “No. of mice alive on 5th day” value in [9] (dose 0.1 mg oral, 1,5 and 24 hours after infection) is given as 10 mice.

For `CC[C@H]1OC(=O)[C@H](C)[C@@H](O[C@H]2C[C@@](C)(OC)[C@@H](O)[C@H](C)O2)[C@H](C)[C@@H](O[C@@H]2O[C@H](C)C[C@H](N(C)C)[C@H]2O)[C@](C)(O)C[C@@H](C)C(=NOCCOc2ccc(Cl)cc2)[C@H](C)[C@@H](O)[C@]1(C)O` [Example 2, 9-[0-(2-{4-chlorophenoxy}-ethyl)-oxime] of erythromycin], the MIC in [1] (setting [18]) is 0.1 mg/L (≈ 0.111 µM); in assay [2] (Staphylococcus aureus, UC1128, 24 h), 1 mg/L (≈ 1.11 µM); in assay [3] it was 0.5 mg/L (≈ 0.553 µM); in assay [4] it was at most 0.02 mg/L; in assay [5], 0.1 mg/L (≈ 0.111 µM); in assay [6] it was 0.1 mg/L (≈ 0.111 µM). Moreover, the MIC in assay [7] was found to be 0.2 mg/L (≈ 0.221 µM).

For `CC[C@H]1OC(=O)[C@H](C)[C@@H](O[C@H]2C[C@@](C)(OC)[C@@H](O)[C@H](C)O2)[C@H](C)[C@@H](O[C@@H]2O[C@H](C)C[C@H](N(C)C)[C@H]2O)[C@](C)(O)C[C@@H](C)C(=NOCOC)[C@H](C)[C@@H](O)[C@]1(C)O` [Example 33, 9-[O-(methoxymethyl)-oxime] of erythromycin], the MIC in assay [2] (setting [13]) amounted to 0.4 mg/L (≈ 0.504 µM); in assay [3], 0.2 mg/L (≈ 0.252 µM); in [4] it was 0.02 mg/L (≈ 0.0252 µM); in assay [5], 0.1 mg/L (≈ 0.126 µM); in [6], 0.1 mg/L (≈ 0.126 µM); in assay [10], 0.1 mg/L (≈ 0.126 µM). Besides, in [11], the MIC turned out to be 0.2 mg/L (≈ 0.252 µM). Moreover, the “No. of mice living on the 8th day” value in assay [8] (setting [14]) is given as 10 mice; in [8] (setting [15]), 7 mice.
